# Test results reported in patent US20040116530A1, “Tissue fibrosis inhibitors” (priority 2001, published 2004).
# Marks after values point to notes of the source that are not given here.
# What was measured:
# acute hepatitis = conditions: literature statement; cited from earlier work
# [1] = test system: dimethylnitrosamine-induced rat hepatitis models; test: Dimethylnitrosamine-induced rat hepatitis model (hepatic injury and fibrogenesis); type: in vivo; conditions: for Hepatic Fibrogenesis Score: n=15, histology (azan stain), grade 0-4
# Procedure: Dimethylnitrosamine was frequently administered to rats for 3 weeks to thereby make the rats have irreversible hepatic fibrogenesis. The rats are the test models in this experiment. As the index of hepatic injury and fibrogenesis, the hepatic hydroxyproline was measured in every rat and the liver tissue of each rat was pathologically analyzed. Based on the data, the tissue fibrogenesis-inhibiting effect of the prostaglandin-I2 agonist was evaluated.
# 10 mg/kg of dimethylnitrosamine was intra-abdominally administered to rats everyday in continuous 3 days a week, over a period of three weeks. 5 days after the final administration of dimethylnitrosamine, the liver was taken out of each rat and its weight was measured. Then, distal potion of the left lobe of the liver was cut out. A part of it was used for histologic analysis^*1) for hepatic fibrogenesis; and another part thereof was used for determination of hepatic hydroxyproline content^*2).
# The test compound was orally administered to the rats from the initial dimethylnitrosamine administration to one day before the blood collection from the rats. On the day for dimethylnitrosamine administration, the test compound was administered 12 hours after the dimethylnitrosamine administration; and on the other day, it was administered once a day. The effect of the test compound for curing hepatic injury and fibrogenesis was investigated. The test compound was administered to three groups −1 mg/kg/day administration group (n =15), 3.2 mg/kg/day administration group (n=15), and 10 mg/kg/day administration group (n=15). To the comparative control group, 0 mg/kg administration group (n=15), a solvent was administered in place of the test compound. To confirm the presentation of hepatic fibrogenesis through
# dimethylnitrosamine administration, a solvent in place of dimethylnitrosamine was administered to a no-treatment group (n=5).
# A distal potion of the left lobe of the liver was fixed in 10% neutral buffer formalin liquid, then stained with azan to prepare an anatomicopathological specimen, on which the degree of fibrogenesis was classified into 5 grades according to the fibrogenesis criteria mentioned below.
# Grade 0: No fibrogenesis was found.
# Grade 1: Light fibrogenesis was found only locally in and around the portal vein and the central vein.
# Grade 2: The fibrogenesis in and around the portal vein and the central vein extended to the lobe.
# Grade 4: High-level fibrogenesis was found along with pseudo lobe formation.
# A part of the left lobe of the liver that had been frozen at −80° C. was thawed, and 1 ml/500 mg-liver weight of phosphate balanced salt buffer (PBS(−), Dulbecco PBS(−)) was added to it. Then, this was homogenized in Polytron (power control 7, type; PT 10 20 350D, by KINEMATICA) for 1 minute. 4 ml of the thus-homogenized liquid was transferred into a screw cap-equipped centrifuge (by PYREX), and 0.4 ml of 9M HCl was added to it and incubated at120° C. for 8 hours (in DRYING STERILIZER SG-62, by YAMATO). Next, this was further incubated at 4° C. overnight, then neutralized with 6 M KOH and 9M HCl, and then filtered (pore size 0.45 μm, MILLIPORE). 1 ml of chloramine-T^(**) was added to 100 μl of the filtrate or a standard liquid^(*), and left at room temperature for 20 minutes. 1 ml of Ehrich solution^(***) was added to it, and incubated at 65° C. for 40minutes. The reaction was stopped in ice-water, and then the absorbance (OD560) of the reaction liquid was measured with an spectrophotometer UV2100PC (UV-VIS SCANNING SPECTRO PHOTOMETER, by SHIMADZU).
# [2] = test system: bleomycin-induced mouse fibrotic lung models; test: Bleomycin-induced lung fibrosis model in mice; type: in vivo
# Procedure: Bleomycin was frequently administered to mice for 10 days to thereby make the mice fibrotic lung. The mice are the test models in this experiment. As the index of lung fibrogenesis, the lung hydroxyproline was measured in every mouse, from which the effect of the prostaglandin-I2 agonist for inhibiting lung fibrogenesis was investigated.
# 1. 10 mg/kg of bleomycin that had been dissolved in saline to have a concentration of 1 mg/ml was intraperitoneally administered to 8-weeks-old male C57BL/6N mice, once a day, everyday for continuous 10 days. Saline alone was intraperitoneally administered to the negative control group.
# 2. To the animals of the positive control group and the test compound-administered group, 10 ml/kg of pure water or an aqueous solution of the test compound (32 mg/kg) was orally administered everyday during the test period from the start of the bleomycin administration.
# 3. 4 weeks after the start of the bleomycin administration, the animals were killed in a mode of euthanasia, the lung was taken out, its wet weight was measured, and the lung was then freesed at −30° C.
# 4. […]
# 5. The hydrolyzed sample was neutralized with 6 mols/liter of potassium hydroxide, and the hydroxyproline content of the sample was measured, from which the lung hydroxyproline content was derived. […]
# [3] = test compound-administered groups (1, 3.2, 10 mg/kg/day oral) vs dimethylnitrosamine control, figure only
Compound,hepatic coagulation necrosis in acute hepatitis (acute hepatitis),"Hepatic Fibrogenesis Score ([1]; 1 mg/kg/day oral, control (0 mg/kg) 2.1 ± 0.2)","Hepatic Fibrogenesis Score ([1]; 3.2 mg/kg/day oral, p < 0.05 vs. 0 mg/kg (2.1 ± 0.2))","Hepatic Fibrogenesis Score ([1]; 10 mg/kg/day oral, p < 0.05 vs. 0 mg/kg (2.1 ± 0.2))","hepatic fibrogenesis (histology), in words ([1]; test compound-administered groups (1, 3.2, 10 mg/kg/day oral) vs dimethylnitrosamine control)","hepatic hydroxyproline content (hepatic collagen content) [1, 3]","liver weight reduction [1, 3]","Hydroxyproline Content (lung) ([2]; 32 mg/kg oral daily, 4 weeks after start of bleomycin, n=15, positive control 398.19 ± 15.483, negative control 200.03 ± 6.9707, p < 0.01 vs positive control)",increase in the lung hydroxyproline content caused by bleomycin administration ([2]; oral administration of 32 mg/kg)
CC#CCC(C)[C@H](O)/C=C/[C@@H]1[C@H]2c3cccc(CCCC(=O)O)c3O[C@H]2C[C@H]1O (mixture of isomers) [beraprost],inhibits hepatic coagulation necrosis,–,–,–,–,–,–,–,–
"O=C(O)COc1cccc2c1CC[C@](O)(COC(=O)N(c1ccccc1)c1ccccc1)C2 [Test compound, [[(2R)-5-(carboxymethoxy)-2-hydroxy-1,2,3,4-tetrahydronaphth-2-yl]methyl]N,N-diphenylcarbamate]",–,1.7 ± 0.2,1.3 ± 0.2*,1.3 ± 0.2*,inhibited,decreased,suppressed,308.37 ± 19.403 ug/lung,significantly inhibited
